Assay results as given in patent US20140378469A1, “LKB1/STK11 DELETION IN MELANOMA AND RELATED METHODS” (The University of North Carolina at Chapel Hill, priority 2012, published 2014).

Tested on: TKp53^L/Lp16^L/L melanoma cells
Assay: in vitro scratch (wound healing) assay with dasatinib
Type: cell-based, murine
Conditions: 30 nM dasatinib, 12 hours after wounding
Protocol: FIG. 4C is a bar graph of closure index for TKp53^L/Lp16^L/L melanoma cells with LKB1 knockdown treated with vehicle (shLkb1+DMSO) or 30 nM dasatinib (shLkb1+Dasatinib) and for TKp53^L/Lp16^L/L melanoma cells without Lkb1 knockdown treated with vehicle (NS+DMSO) or 30 nM dasatinib (NS+Dasatinib). Closure index was measured 12 hours after wounding. The asterisks indicate a significant difference (P<0.05).
The in vitro scratch (wound healing) assay was performed as described previously. See Carretero et al., 2010. Briefly, a 1 mm wide scratch was made on a confluent monolayer, and cells were then allowed to grow under standard conditions for 12 hours. The migrated distance was quantified using Image J™ software. “Close Index” was determined as 1-f, where f is calculated as the remaining gap area divided by the starting scratched area. Cell invasion was measured using matrigel invasion assay using invasion chambers obtained from BD Biosciences (San Jose, Calif., United States of America), with assays performed according to the manufacturer's instructions. Cells of the indicated genotypes (2.5×10^4) were added to the upper chamber in 500 uL of serum-free medium, and the lower chamber was filled with 750 uL of medium containing 10% fetal bovine serum (FBS) as an attractant. After 24 hours of incubation, cells on the underside of the filter were fixed, stained and counted. […]

With `Cc1nc(Nc2ncc(C(=O)Nc3c(C)cccc3Cl)s2)cc(N2CCN(CCO)CC2)n1` [dasatinib] as the compound, how does the “decrease in cell migration (closure index)” value (Lkb-intact melanoma cells (NS)) read?
The value was 14%.

And the “decrease in cell migration (closure index)” value (melanoma cells with Lkb1 knockdown (shLkb1))?
The value was 27%.
